According to patent publication US6310090A, “Process and product for enhancing immune response in companion animals using a combination of antioxidants” (priority 2000, dated 2001):

How the values were obtained:
[1] = uptake profile of plasma β-carotene after a single oral dose; parameters: species or system dog (Beagle); conditions: dog, in vivo
Experimental: (§1) Female Beagle dogs (18 to 19 months of age; 7 to 9 kg body weight) were fed a basal diet (The lams Co., Lewisburg, OH) which met or exceeded the requirement for all essential nutrients. Animals were housed indoors in light- (14 hr light; 10 hr dark) and temperature-controlled rooms. A test was conducted to study the uptake profile of β-carotene after a single oral dose of β-carotene.
To study the uptake of oral β-carotene in dogs given a single dose of β-carotene orally, dogs (n=6/treatment) were given once perorally 0, 50, 100 or 200 mg of β-carotene (10% cold water dissolvable; BASF Corp., Ludwigshafen, Germany). The appropriate dose of β-carotene was dissolved in 5 ml of water fed orally by using a feeding syringe. In order to establish appropriate sampling times, two dogs were used in a preliminary study. These dogs were fed once with 50 mg β-carotene and blood sampled at 0 (immediately prior to β-carotene feeding), 3, 6, 9, 12, 15, 18, 21 and 24 hr.
(§2) Blood plasma was separated by centrifugation and β-carotene concentrations were analyzed using high performance liquid chromatography (HPLC) as follows. All procedures were conducted under dim light. Duplicate aliquots of plasma, each leukocyte homogenate, and each leukocyte subcellular fraction were extracted with a 1:1 mixture of diethyl ether and petroleum ether in the presence of BHT. The ether phase was removed and dried under a stream of nitrogen. The residue was reconstituted in mobile phase for the HPLC determination of β-carotene. Samples (50 μl) were injected onto a 5 μm spherical C-18 reverse-phase column (3.9×150 mm; Resolve) and eluted with a 47:47:6 (v/v/v) mixture of acetonitrile, methanol, and chloroform at a flow rate of 1.0 ml/min.

[2] = system: PHA (nonspecific immunity); test: delayed-type hypersensitivity (DTH) against PHA, β-carotene feeding; type: in vivo, dog (Beagle); conditions: 50 mg of β-carotene
Experimental: (§3) In a fourth study, female Beagles (4 to 5 mo old) were supplemented daily with 0, 25, 50 or 100 mg of β-carotene to study the role of dietary β-carotene in enhancing the cell-mediated and humoral immune systems of the dog. The following parameters were assessed in all the animals or in the peripheral blood lymphocytes: (1) delayed-type hypersensitivity (DTH) against PHA (nonspecific immunity) and vaccine (specific immunity), (2) lymphocyte proliferation, (3) lymphocyte populations and (4) immunoglobulins (Ig).

cancer = conditions: supplementation alone, compared with diets high in antioxidants; cited from earlier work
[3] = uptake of β-carotene by blood neutrophils and their subcellular fractions; type: in vivo, dog (Beagle); conditions: dog, blood neutrophils, po; 50 or 100 mg daily; read-out: time of maximal uptake by blood neutrophils
Experimental: as §1, §2
(§4) A third study was designed to study the uptake of β-carotene in dogs by blood lymphocytes. The dogs (n=8/treatment) were fed 0, 50 or 100 mg of β-carotene daily for 30 days. Blood was sampled from all dogs via the jugular vein on days 10, 20 and 30. Blood lymphocytes and neutrophils were separated by density gradient centrifugation. Cell numbers were enumerated. Lymphocytes and neutrophils were resuspended in PBS containing 3% sodium ascorbate as an antioxidant. An aliquot of the cell suspension was sonicated for 30 seconds to disrupt the cells. The leukocyte homogenates were extracted for HPLC analysis of β-carotene.
(§5) On day 30, a larger aliquot of blood was taken and leukocyte suspensions prepared as described above for subsequent subcellular fractionation. Cells were disrupted by sonication for 20 seconds in 5 volumes of 0.25 M sucrose. Sodium ascorbate was added as the antioxidant. The homogenate was centrifuged (600×g for 10 min at 4° C.) and the nuclear pellet separated from the supernatant. The postnuclear supernatant was centrifuged (17,300×g for 20 min at 4° C.) to separate the mitochondrial fraction. The postmitochondrial supernatant was centrifuged (102,000×g for 60 min at 4° C.) to separate the microsomal from the cytosolic fraction. Each subcellular fraction was analyzed for β-carotene content by HPLC.

blood neutrophils = test: as above; type: in vivo, dog (Beagle); conditions: dog, in vivo
Experimental: as §1, §2, §4, §5

mouse splenocytes = conditions: cited from earlier work
[4] = type: in vivo, dog (Beagle)
Experimental: as §3

IL-2 = IL-2 production, β-carotene feeding; type: cell-based, dog (Beagle)
[5] = system: vaccine (specific immunity); test: delayed-type hypersensitivity (DTH) against vaccine, β-carotene feeding; type: in vivo, dog (Beagle); conditions: 20 or 50 mg of β-carotene
Experimental: (§6) The following parameters were assessed in all the animals or in the peripheral blood lymphocytes: (1) delayed-type hypersensitivity (DTH) against PHA (nonspecific immunity) and vaccine (specific immunity), (2) lymphocyte proliferation, (3) lymphocyte populations and (4) immunoglobulins (Ig).

blood lymphocytes = system: blood lymphocytes; parameters: species or system dog (Beagle); conditions: dog, in vivo
Experimental: as §1, §2, §4, §5

immune system = test: summary of the results from each of the studies (Table 1); type: in vivo, dog
CD4+ cells = test: lymphocyte populations, β-carotene feeding; type: in vivo, dog (Beagle); conditions: 20 or 50 mg, week 8, compared to controls
Experimental: as §6

CD8 cells = test: lymphocyte populations, β-carotene feeding; type: in vivo, dog (Beagle); conditions: 20 mg, weeks 2 and 4
Experimental: as §6

IgM = test: immunoglobulins, β-carotene feeding; type: in vivo, dog (Beagle); conditions: as early as 1 week after supplementation
Experimental: as §3

IgG = test: immunoglobulins, β-carotene feeding; type: in vivo, dog (Beagle); conditions: as early as 1 week after supplementation
Experimental: as §3

immunoglobulins (Ig) = test: immunoglobulins / antibody levels in the blood, β-carotene feeding; type: in vivo, dog (Beagle)
Experimental: FIG. 1 is a graph of antibody concentration in dogs (mg/dl) versus mg/kg diet of beta-carotene; and
as §6

lymphocyte [6] = test: mitogen-induced lymphocyte blastogenesis, β-carotene feeding; type: cell-based, dog (Beagle)
Experimental: as §3

[7] = plasma β-carotene on daily feeding for 7 consecutive days; parameters: species or system dog (Beagle); conditions: dog, in vivo
Experimental: as §1, §2
In a second study, the dogs (n=6/treatment) were fed daily at 0800 hr for 7 consecutive days with 0, 12.5, 25, 50 or 100 mg β-carotene. […] Plasma was isolated and analyzed for concentrations of β-carotene.

lymphocyte [8] = conditions: rats; cited from earlier work
[9] = system: chemical-induced carcinogenesis; conditions: mice; cited from earlier work
lymphocyte [10] = test: lymphocyte mitogenic response to ConA and PHA, vitamin E diets; type: cell-based, dog (Beagle); conditions: 8 weeks
Text: Twenty young (mean age 2 years) and 20 old (mean age 9.2 years) Beagles were fed a standard commercial chicken/corn-based diet formulated to contain 27 IU/kg diet of vitamin E (NRC recommendation) (control diet) for 1 month prior to the commencement of the experiment in order to stabilize the dogs' vitamin E levels. Young and old dogs were then randomly assigned to the diets containing 27 IU/kg diet of vitamin E or 280 IU/kg diet of vitamin E for 8 weeks. Blood was collected before and after 8 weeks of dietary treatments for measurement of plasma vitamin E levels and assessment of lymphocyte mitogenic response to ConA (concanavalin A) and PHA (phytohemagglutinin).

[11] = daily β-carotene supplementation

Compound: CC1=C(/C=C/C(C)=C/C=C/C(C)=C/C=C/C=C(C)/C=C/C=C(C)/C=C/C2=C(C)CCCC2(C)C)C(C)(C)CCC1 [β-carotene]
- concentration of β-carotene in plasma of dogs, lower than in cats [1]: 10-16 fold
- peak concentrations of blood β-carotene, dogs versus cats ([1]; po): occurred earlier in dogs than in cats
- Tmax ([1]; po, preliminary study, two dogs, 50 mg once orally, plasma, read-out: time of peak concentrations of β-carotene): 3 to 6 h
- DTH response to PHA challenge [2]: greatest response
- magnitude of protection (cancer): do not provide the same magnitude of protection
- Tmax [3]: ≤ 240 h
- dose effect on uptake by blood neutrophils (blood neutrophils): No significant dose effect was observed
- β-carotene in the cytosolic fraction of blood neutrophils (blood neutrophils): 61-68
- β-carotene in the nuclei of blood neutrophils (blood neutrophils): not detected
- ex vivo antibody response of mouse splenocytes to T-dependent antigens (mouse splenocytes): increase ex vivo antibody response
- plasma retinol [4, 11]: did not influence
- plasma α-tocopherol [4, 11]: did not influence
- plasma β-carotene concentrations ([4]; dog, in vivo): increased plasma β-carotene concentrations in a dose-dependent manner
- IL-2 production (IL-2): did not influence
- DTH response to the vaccine [5]: significantly higher DTH response
- share of total β-carotene in lymphocytes, cytosol (blood lymphocytes): 52-62%
- share of total β-carotene in lymphocytes, microsomes (blood lymphocytes): 16-23%
- share of total β-carotene in lymphocytes, mitochondria (blood lymphocytes): 14-17%
- share of total β-carotene in lymphocytes, nuclei (blood lymphocytes): 6-8%
- β-carotene concentrations in lymphocytes, 50 versus 100 mg (blood lymphocytes): no significant treatment difference
- Increase antibody levels in the blood (immune system; Table 1): .check mark.
- Optimize types of cells present in the blood (immune system; Table 1): .check mark.
- Optimize vaccine recognition by the dog (immune system; Table 1): .check mark.
- population of CD4+ cells (CD4+ cells): elevated population of CD4+ cells
- population of CD8 cells (CD8 cells): elevated population of CD8 cells
- concentration of IgM (IgM): increased significantly
- concentration of IgG (IgG): increased significantly
- concentration of total IgG (IgG; total IgG): increased significantly
- increases in Ig (immunoglobulins (Ig); 0 to 20 mg of β-carotene): dose dependent
- antibody response for both Ig (immunoglobulins (Ig); 20 mg of β-carotene): consistently had the greatest antibody response
- increase in antibody levels in the blood (immunoglobulins (Ig); FIG. 1, addition of β-carotene to the diet): 20%
- increases in Ig (immunoglobulins (Ig); highest level, 50 mg): did not produce a further increase
- mitogen-induced lymphocyte blastogenesis (lymphocyte [6]): did not influence
- plasma β-carotene after the last dose, higher than after the first dose [7]: 2.5-4 fold

Compound: CC1=C(/C=C/C(C)=C/C=C/C(C)=C/C=C/C=C(C)/C=C/C=C(C)/C=C/C2=C(C)C(=O)[C@@H](O)CC2(C)C)C(C)(C)C[C@H](O)C1=O [Astaxanthin, astaxanthin]
- ex vivo antibody response of mouse splenocytes to T-dependent antigens (mouse splenocytes): increase ex vivo antibody response

Compound: CC1=C(/C=C/C(C)=C/C=C/C(C)=C/C=C/C=C(C)/C=C/C=C(C)/C=C/C2=C(C)C(=O)CCC2(C)C)C(C)(C)CCC1=O [canthaxanthin]
- lymphocyte proliferation (lymphocyte [8]): increase lymphocyte proliferation in rats
- chemical-induced carcinogenesis [9]: prevent chemical-induced carcinogenesis in mice

Compound: vitamin E
- magnitude of protection (cancer): do not provide the same magnitude of protection
- ConA and PHA-stimulated proliferation (lymphocyte [10]; dogs supplemented with 280 IU/kg diet): No such decrease was observed
- mitogen-stimulated lymphocyte proliferation (lymphocyte [10]; old dogs, 27 or 280 IU/kg diet): did not show a significant change
- ConA and PHA-stimulated proliferation (lymphocyte [10]; young dogs, 27 IU/kg diet): significant decrease
- Optimize immune cell activity (T-cells) (immune system; Table 1, Vitamin E column): .check mark.
